Results as given in ChEMBL document CHEMBL6087482, “Discovery of INCB159020, an Orally Bioavailable KRAS G12D Inhibitor” (J Med Chem, 2025).
pIC50: −log10 of the molar value.

Experiments:
Aurora kinase B = Aurora kinase B (Homo sapiens, UniProt Q96GD4); assay: Binding affinity to Aurora B (unknown origin) in presence of ATP
[1] = target: High affinity nerve growth factor receptor (Homo sapiens, UniProt P04629); assay: Binding affinity to TRKA (unknown origin) in presence of ATP
[2] = Solubility of compound in FASSIF; assay type: physicochemical
[3] = Intrinsic clearance in human liver microsomes at 1 uM measured upto 30 mins in presence of NADPH by LC/MS analysis; assay type: ADME, Microsome; settings: read-out: CLH (converted)
Cytochrome P450 2B6 = target: T1, Cytochrome P450 2B6 (Homo sapiens, UniProt P20813); assay: Inhibition of CYP2B6 (unknown origin); assay type: ADME
T1 sequence (P20813 whole entry): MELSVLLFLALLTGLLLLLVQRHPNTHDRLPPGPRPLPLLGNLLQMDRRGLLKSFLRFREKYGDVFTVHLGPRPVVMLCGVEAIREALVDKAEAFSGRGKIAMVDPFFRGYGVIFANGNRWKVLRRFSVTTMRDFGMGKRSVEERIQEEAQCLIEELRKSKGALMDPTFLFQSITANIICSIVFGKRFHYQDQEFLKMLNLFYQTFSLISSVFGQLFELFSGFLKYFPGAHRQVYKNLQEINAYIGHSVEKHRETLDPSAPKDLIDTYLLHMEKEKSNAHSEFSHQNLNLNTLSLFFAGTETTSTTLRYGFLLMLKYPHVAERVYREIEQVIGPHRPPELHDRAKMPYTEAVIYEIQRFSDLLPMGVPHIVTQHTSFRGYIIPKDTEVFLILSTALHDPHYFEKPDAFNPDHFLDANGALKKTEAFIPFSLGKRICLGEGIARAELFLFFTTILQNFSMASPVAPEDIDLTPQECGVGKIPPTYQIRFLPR

Primates = assay: Clearance in Non human primate assessed as hepatic blood flow at […], po or 1 mg/kg, iv; assay type: ADME, organism-based; settings: in vivo, dose 1.5 mg/kg
[4] = Half-life in Sprague-Dawley rat at 3 mg/kg, po or 1 mg/kg, iv measured after 24 hrs by LC-MS/MS analysis; assay type: ADME, organism-based; settings: in vivo
[5] = AUC in Sprague-Dawley rat at 3 mg/kg, po or 1 mg/kg, iv measured after 24 hrs by LC-MS/MS analysis; assay type: ADME, organism-based; settings: in vivo
[6] = Oral bioavailability in Sprague-Dawley rat at 3 mg/kg measured after 24 hrs by LC-MS/MS analysis; assay type: ADME, organism-based; settings: in vivo
[7] = Drug concentration in mouse plasma xenografted with HPAC cells at 300 mg/kg, po measured after 24 hrs; assay type: ADME, organism-based
[8] = Cmax in Sprague-Dawley rat at 3 mg/kg, po or 1 mg/kg, iv measured after 24 hrs by LC-MS/MS analysis; assay type: ADME, organism-based; settings: in vivo
[9] = Oral bioavailability in Non human primate at […]; assay type: ADME, organism-based; settings: primates, in vivo, dose 1.5 mg/kg
[10] = Cmax in Non human primate at […], po or 1 mg/kg, iv; assay type: ADME, organism-based; settings: primates, in vivo, dose 1.5 mg/kg
[11] = Solubility of compound in SGF; assay type: physicochemical
[12] = Drug concentration in mouse plasma xenografted with HPAC cells at 100 mg/kg, po measured after 24 hrs; assay type: ADME, organism-based
[13] = Half-life in Non human primate at […], po or 1 mg/kg, iv; assay type: ADME, organism-based; settings: primates, in vivo, dose 1.5 mg/kg
[14] = Toxicity in mouse xenografted with human HPAC cells assessed as tolerance at 30 to 300 mg/kg, po measured after 24 hrs; assay type: organism-based; settings: in vivo, dose 30-300 mg/kg
[15] = Apparent permeability across apical to basolateral side in human Caco-2 cells at 50 uM incubated for 120 mins by LC-MS analysis; assay type: ADME, cell-based
Cytochrome P450 1A2 = target: T2, Cytochrome P450 1A2 (Homo sapiens, UniProt P05177); assay: Inhibition of CYP1A2 (unknown origin); assay type: ADME
T2 sequence (P05177 whole entry): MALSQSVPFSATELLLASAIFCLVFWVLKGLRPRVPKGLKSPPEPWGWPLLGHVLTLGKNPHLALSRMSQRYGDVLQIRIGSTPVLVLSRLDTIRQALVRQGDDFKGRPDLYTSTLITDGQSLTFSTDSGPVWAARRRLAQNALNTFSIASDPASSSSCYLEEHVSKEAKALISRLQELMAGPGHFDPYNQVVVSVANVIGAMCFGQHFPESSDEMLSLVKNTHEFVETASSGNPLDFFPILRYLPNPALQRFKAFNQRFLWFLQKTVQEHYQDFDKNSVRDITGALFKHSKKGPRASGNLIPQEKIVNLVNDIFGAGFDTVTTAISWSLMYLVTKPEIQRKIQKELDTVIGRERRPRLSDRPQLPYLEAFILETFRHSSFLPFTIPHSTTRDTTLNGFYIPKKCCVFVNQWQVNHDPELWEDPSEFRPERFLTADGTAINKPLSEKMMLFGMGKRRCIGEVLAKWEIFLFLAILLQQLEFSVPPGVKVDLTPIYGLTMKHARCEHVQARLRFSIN

Cytochrome P450 = assay: Time dependent inhibition of CYP (unknown origin); assay type: ADME, protein assay; settings: human
Cytochrome P450 3A4 = Cytochrome P450 3A4 (Homo sapiens, UniProt P08684); assay: Inhibition of CYP3A4 (unknown origin); assay type: ADME
Sequence of Cytochrome P450 3A4 (P08684 whole entry): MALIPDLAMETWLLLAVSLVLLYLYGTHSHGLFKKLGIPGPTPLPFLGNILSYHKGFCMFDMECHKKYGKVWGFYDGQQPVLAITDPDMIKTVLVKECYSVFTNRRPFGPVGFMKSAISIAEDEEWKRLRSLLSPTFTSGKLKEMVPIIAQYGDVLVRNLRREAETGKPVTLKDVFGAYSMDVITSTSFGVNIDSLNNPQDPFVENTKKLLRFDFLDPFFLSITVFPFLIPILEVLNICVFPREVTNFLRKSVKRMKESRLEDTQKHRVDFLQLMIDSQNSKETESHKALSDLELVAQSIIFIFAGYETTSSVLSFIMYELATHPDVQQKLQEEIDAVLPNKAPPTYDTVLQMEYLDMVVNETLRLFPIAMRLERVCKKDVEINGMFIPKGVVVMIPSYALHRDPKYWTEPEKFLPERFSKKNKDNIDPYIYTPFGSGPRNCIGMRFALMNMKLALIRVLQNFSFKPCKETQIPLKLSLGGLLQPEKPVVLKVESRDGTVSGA

Cytochrome P450 2D6 = Cytochrome P450 2D6 (Homo sapiens, UniProt P10635); assay: Inhibition of CYP2D6 (unknown origin); assay type: ADME
Sequence of Cytochrome P450 2D6 (P10635 whole entry): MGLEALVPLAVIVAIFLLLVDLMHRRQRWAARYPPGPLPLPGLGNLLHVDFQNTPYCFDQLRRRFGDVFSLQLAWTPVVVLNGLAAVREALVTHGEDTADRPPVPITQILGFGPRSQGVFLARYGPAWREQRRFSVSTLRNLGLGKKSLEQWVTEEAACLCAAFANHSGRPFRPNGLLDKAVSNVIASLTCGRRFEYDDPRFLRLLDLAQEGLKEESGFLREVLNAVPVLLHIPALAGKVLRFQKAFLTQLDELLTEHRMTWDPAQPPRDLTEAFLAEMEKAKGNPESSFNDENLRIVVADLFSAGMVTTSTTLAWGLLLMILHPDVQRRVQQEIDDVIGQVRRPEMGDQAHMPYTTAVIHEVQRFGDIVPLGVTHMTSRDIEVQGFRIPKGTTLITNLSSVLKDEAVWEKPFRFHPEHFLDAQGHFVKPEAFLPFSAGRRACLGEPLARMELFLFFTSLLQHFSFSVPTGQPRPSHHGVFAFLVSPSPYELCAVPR

[16] = Clearance in Sprague-Dawley rat assessed as hepatic blood flow at 3 mg/kg, po or 1 mg/kg, iv measured after 24 hrs by LC-MS/MS analysis; assay type: ADME, organism-based; settings: in vivo
[17] = target: Voltage-gated inwardly rectifying potassium channel KCNH2 (Homo sapiens, UniProt Q12809); assay: Inhibition of human ERG; assay type: toxicity
Sequence of Voltage-gated inwardly rectifying potassium channel KCNH2 (Q12809 whole entry): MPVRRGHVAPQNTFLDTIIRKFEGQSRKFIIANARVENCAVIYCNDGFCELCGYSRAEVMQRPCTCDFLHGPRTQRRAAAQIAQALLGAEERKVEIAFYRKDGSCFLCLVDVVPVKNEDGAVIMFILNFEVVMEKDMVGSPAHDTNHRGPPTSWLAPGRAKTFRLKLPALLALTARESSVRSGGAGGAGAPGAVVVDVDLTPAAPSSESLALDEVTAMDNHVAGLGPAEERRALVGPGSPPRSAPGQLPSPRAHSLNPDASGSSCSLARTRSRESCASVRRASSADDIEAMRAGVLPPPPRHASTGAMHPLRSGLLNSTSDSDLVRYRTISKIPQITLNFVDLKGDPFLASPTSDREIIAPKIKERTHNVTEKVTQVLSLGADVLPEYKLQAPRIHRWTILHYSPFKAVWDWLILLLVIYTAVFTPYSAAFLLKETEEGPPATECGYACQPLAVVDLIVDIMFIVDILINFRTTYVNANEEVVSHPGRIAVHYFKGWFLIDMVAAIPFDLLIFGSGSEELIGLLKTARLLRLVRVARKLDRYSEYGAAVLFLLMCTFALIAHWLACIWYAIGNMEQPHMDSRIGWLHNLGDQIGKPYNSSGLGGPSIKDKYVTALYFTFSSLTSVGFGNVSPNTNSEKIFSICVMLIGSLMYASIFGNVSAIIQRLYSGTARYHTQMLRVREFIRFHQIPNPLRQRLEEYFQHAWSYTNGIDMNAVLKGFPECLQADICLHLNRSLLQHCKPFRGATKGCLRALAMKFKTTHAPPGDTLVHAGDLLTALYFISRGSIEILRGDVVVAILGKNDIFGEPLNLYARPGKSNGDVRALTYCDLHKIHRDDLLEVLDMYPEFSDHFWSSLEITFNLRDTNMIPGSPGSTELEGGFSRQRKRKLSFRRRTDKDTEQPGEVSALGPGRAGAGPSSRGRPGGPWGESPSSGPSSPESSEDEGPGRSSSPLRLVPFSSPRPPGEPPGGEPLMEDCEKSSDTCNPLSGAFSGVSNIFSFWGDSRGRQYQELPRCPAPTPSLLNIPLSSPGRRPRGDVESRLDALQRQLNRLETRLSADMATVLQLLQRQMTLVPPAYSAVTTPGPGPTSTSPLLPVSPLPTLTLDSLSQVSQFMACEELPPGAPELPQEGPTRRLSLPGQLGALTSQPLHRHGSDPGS

Cytochrome P450 2C9 = Cytochrome P450 2C9 (Homo sapiens, UniProt P11712); assay: Inhibition of CYP2C9 (unknown origin); assay type: ADME
Sequence of Cytochrome P450 2C9 (P11712 whole entry): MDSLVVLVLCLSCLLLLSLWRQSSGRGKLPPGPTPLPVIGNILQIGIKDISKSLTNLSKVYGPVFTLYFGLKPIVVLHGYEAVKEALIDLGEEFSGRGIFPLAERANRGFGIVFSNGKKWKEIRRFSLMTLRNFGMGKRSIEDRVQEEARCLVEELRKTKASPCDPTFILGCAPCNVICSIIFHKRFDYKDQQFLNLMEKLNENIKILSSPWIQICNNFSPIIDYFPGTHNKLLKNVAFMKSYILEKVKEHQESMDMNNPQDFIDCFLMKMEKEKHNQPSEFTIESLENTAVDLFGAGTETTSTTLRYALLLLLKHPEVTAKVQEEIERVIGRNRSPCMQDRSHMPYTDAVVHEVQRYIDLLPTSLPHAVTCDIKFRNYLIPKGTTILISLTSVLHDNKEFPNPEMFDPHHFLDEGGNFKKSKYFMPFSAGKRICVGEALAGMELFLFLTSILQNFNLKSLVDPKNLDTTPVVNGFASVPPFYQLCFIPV

[18] = AUC in Non human primate at […], po or 1 mg/kg, iv; assay type: ADME, organism-based; settings: primates, in vivo, dose 1.5 mg/kg

Sequence of High affinity nerve growth factor receptor (P04629 whole entry): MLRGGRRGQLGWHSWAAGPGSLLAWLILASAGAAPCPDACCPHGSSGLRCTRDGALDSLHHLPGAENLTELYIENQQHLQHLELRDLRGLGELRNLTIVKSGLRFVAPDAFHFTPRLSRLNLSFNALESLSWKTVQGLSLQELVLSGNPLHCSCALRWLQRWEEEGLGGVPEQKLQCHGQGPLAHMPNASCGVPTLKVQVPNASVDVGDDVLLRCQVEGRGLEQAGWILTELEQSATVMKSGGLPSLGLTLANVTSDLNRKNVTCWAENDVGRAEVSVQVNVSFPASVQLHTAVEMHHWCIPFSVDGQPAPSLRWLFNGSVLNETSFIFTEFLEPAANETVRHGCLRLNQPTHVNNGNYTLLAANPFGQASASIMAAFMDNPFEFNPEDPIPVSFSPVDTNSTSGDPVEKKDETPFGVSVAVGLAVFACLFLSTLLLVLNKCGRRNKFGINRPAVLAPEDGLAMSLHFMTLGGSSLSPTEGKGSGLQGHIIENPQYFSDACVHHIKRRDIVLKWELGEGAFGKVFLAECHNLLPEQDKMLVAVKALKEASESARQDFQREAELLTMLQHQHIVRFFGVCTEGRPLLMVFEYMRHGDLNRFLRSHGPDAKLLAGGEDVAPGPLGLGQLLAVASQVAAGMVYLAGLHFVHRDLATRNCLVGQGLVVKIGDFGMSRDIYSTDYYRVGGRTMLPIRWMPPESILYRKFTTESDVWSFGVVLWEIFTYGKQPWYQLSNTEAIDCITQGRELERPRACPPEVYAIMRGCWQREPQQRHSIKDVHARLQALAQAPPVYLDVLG
Sequence of Aurora kinase B (Q96GD4 whole entry): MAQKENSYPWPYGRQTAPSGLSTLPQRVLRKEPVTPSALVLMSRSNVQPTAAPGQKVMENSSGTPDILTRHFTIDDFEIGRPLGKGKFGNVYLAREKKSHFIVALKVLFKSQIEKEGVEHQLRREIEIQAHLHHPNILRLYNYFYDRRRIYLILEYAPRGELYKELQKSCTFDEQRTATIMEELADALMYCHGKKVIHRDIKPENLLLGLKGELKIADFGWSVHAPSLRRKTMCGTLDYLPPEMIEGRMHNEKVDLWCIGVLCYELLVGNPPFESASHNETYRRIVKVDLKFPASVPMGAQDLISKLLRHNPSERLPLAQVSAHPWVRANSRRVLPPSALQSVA

## Cc1cnc(-c2nc3c(F)c(-c4cccc(Cl)c4C)c(CCC#N)cc3c3c2cc([C@@H](C)N2CCOCC2=O)n3[C@H]2[C@H]3CN[C@@H]2C3)cn1
Aurora kinase B
  pIC50: 5.24
[1]
  pIC50: 5.41
[2]
  solubility: > 79 µg/mL
[3]
  hepatic clearance at 1 µM: 16.7 mL/min/kg
Cytochrome P450 2B6
  pIC50: < 4.70
Primates
  QH: 37%
[4]
  half-life: 3.8 h
[5]
  AUC at 24 h: 0.331 µM·h
[6]
  bioavailability: 27%
[7]
  concentration at 24 h: ~8500 nM
[8]
  Cmax: 57 nM
[9]
  bioavailability: 42%
[10]
  Cmax: 100 nM
[11]
  solubility: > 900 µg/mL
[12]
  concentration at 24 h: ~950 nM
[13]
  half-life: 6.4 h
[14]
  Activity: Non-toxic
[15]
  Papp A→B at 2 h, 50 µM: 3.6 ×10⁻⁶ cm/s
Cytochrome P450 1A2
  pIC50: < 4.70
Cytochrome P450
  TDI: Not_active
Cytochrome P450 3A4
  pIC50: 4.77
Cytochrome P450 2D6
  pIC50: 5.14
[16]
  QH: > 100%
[17]
  pIC50: 4.95
Cytochrome P450 2C9
  pIC50: < 4.70
[18]
  AUC: 0.95 µM·h
